Laboratory results as given in patent US20150133493A1, “COUMARIN-BASED COMPOUNDS FOR THE TREATMENT OF ALZHEIMER'S DISEASE AND CANCER” (Sloan-Kettering Institute for Cancer Research, priority 2008, published 2015).
“Also recorded” adds a separate entry of the source.

Tests used:
γ-secretase = target: T1, γ-secretase (Homo sapiens, UniProt P49768); experiment: In vitro γ-secretase activity assay, Aβ42 production (ECL); assay type: biochemical; conditions: in words
T1 construct: endogenous in cells
Procedure: FIG. 2. In vitro characterization of coumarin-dimer allosteric GSIs against various γ-secretase cleavage products. […] The IC50 values were calculated from the dose response curves using a non-linear regression analysis in Prism software. […] The three β-amyloid-detection in vitro assays were modified from our previously reported assay (21) using a biotinylated substrate that eliminated the requirement of anti-β-amyloid biotinylated antibody. Ruthenylated antibodies that detected the -40, -42, or -38 cleavage site were incorporated to detect proteolysis indicative of γ-secretase activity. In vitro Notch assay utilized a recombinant transmembrane portion of the Notch peptide and anti-Notch1 SM320 antibody in conjunction with ruthenylated anti-rabbit secondary antibodies. Electrochemiluminescence was quantified on an Analyzer (BioVeris).
Briefly, recombinant peptide substrate was incubated with γ-secretase (40 μg/ml) in the presence or absence of test compound. […] The reaction was incubated for 2.5 hr at 37° C. and stopped by adding RIPA buffer (150 mM NaCl, 1.0% NP-40, 0.5% sodium deoxycholate, 0.1% SDS, 50 mM Tris HCl, pH 8.0). […] The amount of product was determined using synthetic peptide or recombinant standards.
(§1) Cell membranes and solubilized γ-secretase were prepared as described previously (36). The in vitro and cell γ-secretase assays detecting either Aβ38, Aβ40, or Aβ42 cleavage were performed similar as previously described (21, 36). Cleaved product was detected using ruthenylated antibodies that recognize specific APP cleavage sites (Aβ31-38*, G2-10*, or G2-11* antibody for Aβ38, Aβ40, or Aβ42 respectively). The Km and Vmax in the presence and absence of γ-secretase inhibitors were analyzed by non-linear curve fit using the software SigmaPlot 8.0 with the Michaelis-Menten equation (v=Vm [S]/(Km+[S]; v: initial rate; Vm: maximum velocity; Km: the Michaelis-Menten constant, S: substrate).

[1] = test system: N2a mouse neuroblastoma cells that stably express Swedish-mutated APP; experiment: Cell-based assay of secreted Aβ42, Aβ40, Aβ38 in APPsw-N2A cells; conditions: 24 hrs, in words, CS-1 up to 30 μM
Procedure: FIG. 3. Cellular evaluation of the coumarin-dimer CS-1 and its selective inhibition of Aβ42. Compounds were incubated with the APPsw-N2A mouse neuroblastoma cells for 24 hours and media were analyzed by biotinylated 4G8 and ruthenylated antibodies specific for each respective cleavage product. […] (d) Immunoprecipitation mass spectrometry analysis of CS-1 effect on secreted β-amyloid species. Aβ peptides were immunoprecipitated using 4G8 antibody and isolated with Protein G+/A agarose beads. Samples were analyzed by MALDI-MS. Samples shown are representative and each data point was performed in triplicate. (e) Cell-based Notch cleavage assay. HEK-293 cells were transfected with ΔE Notch construct and then Compound E and CS-1 were evaluated for their ability to inhibit γ-secretase-mediated Notch intracellular domain production. […] Western blot is representative and was performed in triplicate. (f) Effect of CS-1 on AICD production. N2A APPsw cell membrane was prepared and incubated with the indicated concentrations of CS-1 at 37° C. for 2 hours. The generated AICD and APP-CTFs were detected by Western Blotting using APPc antibody. Western blot is representative and was performed in triplicate.
We next set out to determine if the selective inhibition of Aβ42 was maintained in a cell-based system for APP processing. First, we compared our lead compound CS-1 (FIG. 3a) to Compound E (FIG. 3b) and the GSM compound indomethacin (FIG. 3c). N2a mouse neuroblastoma cells that stably express Swedish-mutated APP substrate were treated with the indicated compounds for 24 hrs at 37° C. Following 24 hr incubation period, the medium was collected from the cells and assayed for secreted Aβ42, Aβ40, and Aβ38. […] The result for indomethacin mirrored those findings by Kukar et al. whereby a different cell-based system was utilized (17), further validating our assay system for analysis of these Aβ species. […] This may reflect subtle variations between the cellular and in vitro conformations of γ-secretase. Nevertheless, the cell-based studies confirmed that CS-1 maintains a preference for inhibition of the γ-secretase mediated production of Aβ42 over Aβ40 or Aβ38, which is distinct to previously reported GSMs (17) and inhibitors (14-15, 18).
as §1

Compound: C[C@H](NC(=O)Cc1cc(F)cc(F)c1)C(=O)N[C@H]1N=C(c2ccccc2)c2ccccc2N(C)C1=O [Compound E]
- inhibitory potency and selectivity against γ-secretase cleavage activities in vitro (γ-secretase): did not exhibit any significant selectivity
- effect on secreted Aβ38 production [1]: no inhibitory selectivity; also recorded: inhibited the production of all three β-amyloid species with equal potency
- effect on secreted Aβ40 production [1]: no inhibitory selectivity; also recorded: inhibited the production of all three β-amyloid species with equal potency
- effect on secreted Aβ42 production [1]: no inhibitory selectivity; also recorded: inhibited the production of all three β-amyloid species with equal potency
